In US9365574B2, “Soluble guanylate cyclase activators” (Merck Sharp & Dohme Corp., priority 2010, dated 2016):
pEC50: −log10 of the molar value.

What was measured:
sGC = target: T1, sGC (Homo sapiens, UniProt Q02108+Q02153); assay: Cell-based sGC Functional Assay (CASA Assay), cGMP generation in CHO-K1/sGC cells; conditions: without ODQ incubation; for pEC50: read-out: inflection points (IP)
T1 construct: expressed in transfected cells; host or cells: CHO-K1 (clone #7, CHO-K1/sGC)
T1 sequence (Q02108 1-690): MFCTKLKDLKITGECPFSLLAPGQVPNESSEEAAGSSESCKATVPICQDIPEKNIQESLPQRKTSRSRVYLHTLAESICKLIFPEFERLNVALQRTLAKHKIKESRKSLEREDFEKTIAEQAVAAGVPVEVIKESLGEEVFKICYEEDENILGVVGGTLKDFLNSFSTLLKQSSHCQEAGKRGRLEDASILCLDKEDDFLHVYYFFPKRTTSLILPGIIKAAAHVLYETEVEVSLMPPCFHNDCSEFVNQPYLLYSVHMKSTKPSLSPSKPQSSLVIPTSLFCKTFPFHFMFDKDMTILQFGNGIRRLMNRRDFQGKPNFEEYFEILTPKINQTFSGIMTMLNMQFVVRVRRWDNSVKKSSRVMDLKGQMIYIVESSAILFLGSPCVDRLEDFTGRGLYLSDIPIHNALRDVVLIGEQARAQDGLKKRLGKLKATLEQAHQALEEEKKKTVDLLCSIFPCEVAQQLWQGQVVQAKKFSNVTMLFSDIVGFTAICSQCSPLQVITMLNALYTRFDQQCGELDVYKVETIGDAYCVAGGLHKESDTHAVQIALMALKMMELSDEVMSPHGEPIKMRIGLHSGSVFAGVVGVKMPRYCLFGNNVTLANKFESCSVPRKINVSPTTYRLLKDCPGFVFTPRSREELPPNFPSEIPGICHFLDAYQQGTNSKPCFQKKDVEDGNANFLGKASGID
T1 sequence (Q02153 1-619): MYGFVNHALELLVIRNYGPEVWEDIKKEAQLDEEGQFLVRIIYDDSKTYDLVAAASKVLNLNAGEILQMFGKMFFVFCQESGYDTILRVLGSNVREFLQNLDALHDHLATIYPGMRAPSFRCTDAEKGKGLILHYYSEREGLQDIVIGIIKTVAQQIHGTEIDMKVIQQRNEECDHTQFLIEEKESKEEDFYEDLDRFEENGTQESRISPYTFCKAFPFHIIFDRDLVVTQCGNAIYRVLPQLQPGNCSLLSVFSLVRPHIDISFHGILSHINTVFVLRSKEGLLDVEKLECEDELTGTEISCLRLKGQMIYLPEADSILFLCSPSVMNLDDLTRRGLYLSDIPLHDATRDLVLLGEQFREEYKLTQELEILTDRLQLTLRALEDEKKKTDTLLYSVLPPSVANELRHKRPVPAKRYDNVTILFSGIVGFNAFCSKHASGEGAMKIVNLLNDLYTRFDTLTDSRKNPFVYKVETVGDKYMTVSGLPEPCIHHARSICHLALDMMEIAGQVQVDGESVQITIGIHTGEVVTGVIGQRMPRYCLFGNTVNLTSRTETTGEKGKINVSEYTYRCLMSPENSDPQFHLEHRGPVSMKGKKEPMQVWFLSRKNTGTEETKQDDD
Source text: Cell-based sGC Functional Assay (CASA Assay)
sGC is a heme-containing enzyme that converts GTP to secondary messenger cGMP. Increases in cGMP levels affect several physiological processes including vasorelaxation through multiple downstream pathways. […] Heme-dependent activators (HDAs) preferentially activate sGC containing a ferrous heme group. To determine the effect of sGC activators on enzyme activity, the CASA assay was developed to monitor the generation of cGMP in a cell line that stably expresses the heterodimeric sGC protein.
A CHO-K1 cell line stably expressing the sGC a up heterodimer was generated using a standard transfection protocol. CHO-K1 cells were transfected with plasmids pIREShyghsGCα1 and pIRESneo-hsGCβ1 simultaneously using FUGENE reagent. Clones that stably express both subunits were selected with hygromycin and neomycin for weeks. Clone #7 was chosen for the assay and was designated CHO-K1/sGC. CHO-K1/sGC cells were maintained in F-K12 medium containing 10% heat-inactivated Fetal Bovine Serum (FBS), 100 μg/mL penicillin/streptomycin, 0.5 mg/mL hygromycin and 0.25 mg/mL G418. On the day of the assay, cells were harvested in EBSS Assay Buffer (EAB) containing 5 mM MgCl2, 10 mM HEPES (4-(2-hydroxyethyppiperazine-1-ethanesulfonic acid) and 0.05% BSA (bovine serum albumin) and cell density was adjusted to 2×10^6/mL with EAB. IBMX (3-isobutyl-1-methylxanthin, 0.5 mM) was added to inhibit degradation of cGMP. Compounds were diluted from DMSO stock solutions and added to the assay at a final DMSO concentration of 1%. Cells were incubated with compounds in the presence and absence of 10 μM of 1H-(1,2,4)oxadiazolo(4,3-a) quinoxalin-1-one (ODQ) for 1 hr at 37° C. At the end of the incubation period, the reaction was terminated and the cells were lysed. The level of intracellular cGMP was determined using an HTRF-based assay kit (CisBio, 62GM2PEC), which detects the displacement of a fluorescence labeled cGMP from its specific antibody. The amount of cGMP was plotted against compound concentration in PRISM software and the IP and maximum fold induction over DMSO control were derived from the plot.

[1] = tested on: Spontaneously hypertensive rats (SHR); assay: Acute Efficacy in Spontaneously Hypertensive Rats (SHR), telemetry blood pressure; format: in vivo, rat
How it was run: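 Male SHR with aortic telemetry catheters, 14-day recovery, conscious and freely moving; single oral gavage in 10% transcutol/20% Cremophor/70% water. BP sampled 30 s every 10 min, hourly averages minus prior-day vehicle baseline; value is maximum peak SBP decrease at stated mg/kg PO dose.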

Maximum fold induction over DMSO control (sGC)	pEC50 (sGC)	SMILES	Maximum peak decrease of systolic blood pressure (SBP) in SHR, Category ([1]; single oral dose 0.1 mpk P.O.)	Maximum peak decrease of systolic blood pressure (SBP) in SHR, Category ([1]; single oral dose 0.3 mpk P.O.)
133	6.94	CC1(c2ccccc2)C(=O)Nc2nc(-n3nc(CCC(F)(F)C(F)(F)F)c4cc(Cl)ccc43)nc(N)c21 (stereo not drawn) [Example 2, 4-Amino-2-[5-Chloro-3-(3,3,4,4,4-Pentafluorobutyl)-1H-Indazol-1-yl]-5-Methyl-5-Phenyl-5,7-Dihydro-6H-Pyrrolo[2,3-D]Pyrimidin-6-One]	–	–
156	6.67	CC1(c2ccccc2)C(=O)Nc2nc(-n3nc(CCC(F)(F)C(F)(F)F)c4cc(F)ccc43)nc(N)c21 (stereo not drawn) [Example 26, 4-amino-2-[5-fluoro-3-(3,3,4,4,4-pentafluorobutyl)-1H-indazol-1-yl]-5-methyl-5-phenyl-5,7-dihydro-6H-pyrrolo[2,3-d]pyrimidin-6-one]	–	–
225	7.30	CC1(c2ccccc2)C(=O)Nc2nc(-c3nn(CCC(F)(F)C(F)(F)F)c4cc(Cl)ccc34)nc(N)c21 (stereo not drawn) [Example 58, 4-Amino-2-[6-Chloro-1-(3,3,4,4,4-Pentafluorobutyl)-1H-Indazol-3-yl]-5-Methyl-5-Phenyl-5,7-Dihydro-6H-Pyrrolo[2,3-D]Pyrimidin-6-One]	–	–
126	7.34	CC1(c2ccccc2)C(=O)Nc2nc(-c3nn(CCC(F)(F)C(F)(F)F)c4cc(F)ccc34)nc(N)c21 (stereo not drawn) [Example 70, 4-amino-2-[6-fluoro-1-(3,3,4,4,4-pentafluorobutyl)-1H-indazol-3-yl]-5-methyl-5-phenyl-5,7-dihydro-6H-pyrrolo[2,3-d]pyrimidin-6-one]	–	–
150	6.59	CC1(c2ccc(F)cc2)C(=O)Nc2nc(-c3nc(CCC(F)(F)C(F)(F)F)n4cc(Cl)ccc34)nc(N)c21 (stereo not drawn) [Example 105, 4-Amino-2-[6-Chloro-3-(3,3,4,4,4-Pentafluorobutyl)Imidazo[1,5-A]Pyridin-1-yl]-5-(4-Fluorophenyl)-5-Methyl-5,7-Dihydro-6H-Pyrrolo[2,3-D]Pyrimidin-6-One]	–	–
52	6.86	CC1(c2ccccc2)C(=O)Nc2nc(-c3nc(CCC(F)(F)C(F)(F)F)n4cc(Cl)ccc34)nc(N)c21 (stereo not drawn) [Example 136, 4-amino-2-[6-chloro-3-(3,3,4,4,4-pentafluorobutyl)imidazo[1,5-a]pyridin-1-yl]-5-methyl-5-phenyl-5,7-dihydro-6H-pyrrolo[2,3-d]pyrimidin-6-one]	–	–
–	–	CC1(C(=O)NC2CC2)C(=O)Nc2nc(-c3nn(CCC(F)(F)C(F)(F)F)c4ncc(Cl)cc34)nc(N)c21 (stereo not drawn) [Example 268, 4-amino-2-[5-chloro-1-(3,3,4,4,4-pentafluorobutyl)-1H-pyrazolo[3,4-b]pyridin-3-yl]-N-cyclopropyl-5-methyl-6-oxo-6,7-dihydro-5H-pyrrolo[2,3-d]pyrimidine-5-carboxamide]	B (Category B=SBP in SHRs 25-40 mmHg)	–
–	–	Cc1nnc(C2(C)C(=O)Nc3nc(-c4nn(CCC(F)(F)C(F)(F)F)c5ncc(Cl)cc45)nc(N)c32)o1 (stereo not drawn) [Example 269, 4-amino-2-[5-chloro-1-(3,3,4,4,4-pentafluorobutyl)-1H-pyrazolo[3,4-b]pyridin-3-yl]-5-methyl-5-(5-methyl-1,3,4-oxadiazol-2-yl)-5,7-dihydro-6H-pyrrolo[2,3-d]pyrimidin-6-one]	–	C (Category C=SBP in SHRs>40 mmHg)
–	–	CC1(C(N)=O)C(=O)Nc2nc(-c3nc(CCC(F)(F)C(F)(F)F)c4ccccn34)nc(N)c21 (stereo not drawn) [Example 270, 4-amino-5-methyl-6-oxo-2-[1-(3,3,4,4,4-pentafluorobutyl)imidazo[1,5-a]pyridin-3-yl]-6,7-dihydro-5H-pyrrolo[2,3-d]pyrimidine-5-carboxamide]	–	A (Category A=SBP in SHRs<25 mmHg)
